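Grown in 96-well plates, cells were treated for 48 hours with each compound at five concentrations. Insufficient inhibition: endpoint recorded as highest concentration tested. The concentration for 50% growth inhibition is given as GI50.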 The source made the active and inactive calls. No stated cut-off is given here; in the data, active = GI50 up to about 1.1 µM and inactive = higher.
Assays:
Assay in all cases: DTP human tumour cell line panel, 48 h
SK-MEL-28 = tested on: SK-MEL-28
HCT-15 = tested on: HCT-15
NCI-H23 = tested on: NCI-H23
SN12C = tested on: SN12C
HOP-62 = tested on: HOP-62
SK-OV-3 = tested on: SK-OV-3
SF-539 = tested on: SF-539
MOLT-4 = tested on: MOLT-4
Malme-3M = tested on: Malme-3M
CAKI-1 = tested on: CAKI-1
NCI-H522 = tested on: NCI-H522
Hs-578T = tested on: Hs-578T
COLO 205 = tested on: COLO 205
MCF7 = tested on: MCF7
NCI/ADR-RES = tested on: NCI/ADR-RES
UO-31 = tested on: UO-31
T47D = tested on: T47D
TK-10 = tested on: TK-10
IGROV-1 = tested on: IGROV-1
M14 = tested on: M14
OVCAR-5 = tested on: OVCAR-5
OVCAR-8 = tested on: OVCAR-8
OVCAR-3 = tested on: OVCAR-3
K562 = tested on: K562
RXF 393 = tested on: RXF 393
KM12 = tested on: KM12
BT-549 = tested on: BT-549
DU-145 = tested on: DU-145
ACHN = tested on: ACHN
UACC-62 = tested on: UACC-62
SK-MEL-2 = tested on: SK-MEL-2
RPMI-8226 = tested on: RPMI-8226
U-251 = tested on: U-251
SNB-75 = tested on: SNB-75
MDA-N = tested on: MDA-N
HCC 2998 = tested on: HCC 2998
SW-620 = tested on: SW-620
EKVX = tested on: EKVX
HOP-92 = tested on: HOP-92
MDA-MB-231 = tested on: MDA-MB-231
SF-268 = tested on: SF-268
A498 = tested on: A498
HL-60 = tested on: HL-60
LOX IMVI = tested on: LOX IMVI
SR = tested on: SR
NCI-H460 = tested on: NCI-H460
SK-MEL-5 = tested on: SK-MEL-5
A549 = tested on: A549
786-0 = tested on: 786-0
MDA-MB-435 = tested on: MDA-MB-435
PC-3 = tested on: PC-3
HCT-116 = tested on: HCT-116
UACC-257 = tested on: UACC-257
SF-295 = tested on: SF-295
SNB-19 = tested on: SNB-19
HT-29 = tested on: HT-29
CCRF-CEM = tested on: CCRF-CEM

SMILES: O=C1/C(=C/c2ccncc2)C(n2cccc2)c2c(Br)sc(Br)c21 (configuration not stated)
- GI50 (SK-MEL-28): 2.65 µM (inactive)
- GI50 (HCT-15): 2.85 µM
- GI50 (NCI-H23): 2.56 µM (inactive)
- GI50 (SN12C): 4.39 µM (inactive)
- GI50 (HOP-62): 3.03 µM (inactive)
- GI50 (SK-OV-3): 7.78 µM (inactive)
- GI50 (SF-539): 3.87 µM (inactive)
- GI50 (MOLT-4): 1.4 µM (inactive)
- GI50 (Malme-3M): 3.02 µM (inactive)
- GI50 (CAKI-1): 3.26 µM (inactive)
- GI50 (NCI-H522): 11.7 µM (inactive)
- GI50 (Hs-578T): 2.77 µM (inactive)
- GI50 (COLO 205): 10.4 µM (inactive)
- GI50 (MCF7): 3.85 µM (inactive)
- GI50 (NCI/ADR-RES): 14.3 µM (inactive)
- GI50 (UO-31): 2.29 µM (inactive)
- GI50 (T47D): 3.73 µM (inactive)
- GI50 (TK-10): 4.2 µM (inactive)
- GI50 (IGROV-1): 1.96 µM (inactive)
- GI50 (M14): 0.263 µM (active)
- GI50 (OVCAR-5): 14.3 µM (inactive)
- GI50 (OVCAR-8): 2.28 µM (inactive)
- GI50 (OVCAR-3): 1.87 µM (inactive)
- GI50 (K562): 1.82 µM (inactive)
- GI50 (RXF 393): 1.88 µM (inactive)
- GI50 (KM12): 11.3 µM (inactive)
- GI50 (BT-549): 3.07 µM (inactive)
- GI50 (DU-145): 3.56 µM (inactive)
- GI50 (ACHN): 4.95 µM (inactive)
- GI50 (UACC-62): 2.94 µM (inactive)
- GI50 (SK-MEL-2): 2.46 µM (inactive)
- GI50 (RPMI-8226): 2.02 µM (inactive)
- GI50 (U-251): 2.11 µM (inactive)
- GI50 (SNB-75): 3.53 µM (inactive)
- GI50 (MDA-N): 2.52 µM (inactive)
- GI50 (HCC 2998): 1.88 µM (inactive)
- GI50 (SW-620): 1.57 µM (inactive)
- GI50 (EKVX): 3.1 µM (inactive)
- GI50 (HOP-92): 2.86 µM (inactive)
- GI50 (MDA-MB-231): 2.25 µM (inactive)
- GI50 (SF-268): 2.99 µM (inactive)
- GI50 (A498): 22.7 µM (inactive)
- GI50 (HL-60): 1.53 µM (inactive)
- GI50 (LOX IMVI): 1.93 µM (inactive)
- GI50 (SR): 2.58 µM (inactive)
- GI50 (NCI-H460): 4.39 µM (inactive)
- GI50 (SK-MEL-5): 13.7 µM (inactive)
- GI50 (A549): 14.9 µM (inactive)
- GI50 (786-0): 3.41 µM (inactive)
- GI50 (MDA-MB-435): 2.11 µM (inactive)
- GI50 (PC-3): 4.41 µM (inactive)
- GI50 (HCT-116): 2.79 µM (inactive)
- GI50 (UACC-257): 2.1 µM (inactive)
- GI50 (SF-295): 13.3 µM (inactive)
- GI50 (SNB-19): 15.5 µM (inactive)
- GI50 (HT-29): 4.82 µM (inactive)
- GI50 (CCRF-CEM): 0.671 µM (active)

From ChEMBL document CHEMBL1201862, “PubChem BioAssay data set” (2004)
